Data taken from PubChem BioAssay (NCI).
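Each compound was tested at five concentrations against cells in 96-well plates for 48 hours. The concentration for 50% growth inhibition is given as GI50. TGI: concentration producing complete growth inhibition.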

Columns and labels:
Test in all cases: inhibition of tumour cell growth, NCI panel, 48 h
HS 578T breast = tested on: HS 578T breast
CAKI-1 renal = tested on: CAKI-1 renal
MDA-MB-231 breast = tested on: MDA-MB-231 breast
SK-MEL-2 melanoma = tested on: SK-MEL-2 melanoma
M14 melanoma = tested on: M14 melanoma
BT-549 breast = tested on: BT-549 breast
COLO 205 colon = tested on: COLO 205 colon
HCC-2998 colon = tested on: HCC-2998 colon
HCT-15 colon = tested on: HCT-15 colon
SNB-19 CNS = tested on: SNB-19 CNS
A498 renal = tested on: A498 renal
RXF 393 renal = tested on: RXF 393 renal
MALME-3M melanoma = tested on: MALME-3M melanoma
SK-MEL-5 melanoma = tested on: SK-MEL-5 melanoma
HOP-92 NSCLC = tested on: HOP-92 NSCLC
SNB-75 CNS = tested on: SNB-75 CNS
MCF7 breast = tested on: MCF7 breast
786-0 renal = tested on: 786-0 renal
UO-31 renal = tested on: UO-31 renal
K-562 leukemia = tested on: K-562 leukemia
IGROV1 ovarian = tested on: IGROV1 ovarian
HCT-116 colon = tested on: HCT-116 colon
U251 CNS = tested on: U251 CNS
RPMI-8226 leukemia = tested on: RPMI-8226 leukemia
NCI-H23 lung = tested on: NCI-H23 lung
UACC-62 melanoma = tested on: UACC-62 melanoma
OVCAR-8 ovarian = tested on: OVCAR-8 ovarian
UACC-257 melanoma = tested on: UACC-257 melanoma
NCI/ADR-RES ovarian = tested on: NCI/ADR-RES ovarian

## C=C(C)[C@@H]1CC[C@]2(C(=O)NCCNCCNCCN)CC[C@]3(C)[C@H](CC[C@@H]4[C@@]5(C)CCC(=O)C(C)(C)[C@@H]5CC[C@]43C)[C@@H]12
HS 578T breast
  GI50: 8.3 µM
  TGI: 19.2 µM
CAKI-1 renal
  GI50: 5.87 µM
  TGI: 13.1 µM
MDA-MB-231 breast
  GI50: 8.04 µM
  TGI: 15.8 µM
SK-MEL-2 melanoma
  GI50: > 50 µM
  TGI: > 50 µM
M14 melanoma
  GI50: 8.38 µM
  TGI: 19 µM
BT-549 breast
  GI50: 8.91 µM
  TGI: 22.2 µM
COLO 205 colon
  GI50: 8.74 µM
  TGI: 19 µM
HCC-2998 colon
  GI50: 7.16 µM
  TGI: 14.8 µM
HCT-15 colon
  GI50: 7.65 µM
  TGI: 15.7 µM
SNB-19 CNS
  GI50: 8.5 µM
  TGI: 18.1 µM
A498 renal
  GI50: 42.6 µM
  TGI: > 50 µM
RXF 393 renal
  GI50: 5.6 µM
  TGI: 12.5 µM
MALME-3M melanoma
  GI50: 7.4 µM
  TGI: 16.5 µM
SK-MEL-5 melanoma
  GI50: 6.99 µM
  TGI: 13.5 µM
HOP-92 NSCLC
  GI50: 2.93 µM
  TGI: 10.3 µM
SNB-75 CNS
  GI50: 6.25 µM
  TGI: 14.1 µM
MCF7 breast
  GI50: 7.38 µM
  TGI: 15.5 µM
786-0 renal
  GI50: 7.8 µM
  TGI: 15.8 µM
UO-31 renal
  GI50: 6.85 µM
  TGI: 14.5 µM
K-562 leukemia
  GI50: 8.2 µM
  TGI: 21.8 µM
IGROV1 ovarian
  GI50: 6.42 µM
  TGI: 14.4 µM
HCT-116 colon
  GI50: 6.65 µM
  TGI: 14.9 µM
U251 CNS
  GI50: 7.34 µM
  TGI: 14.6 µM
RPMI-8226 leukemia
  GI50: 6.78 µM
  TGI: 22 µM
NCI-H23 lung
  GI50: 9.14 µM
  TGI: 17.4 µM
UACC-62 melanoma
  GI50: 8.96 µM
  TGI: 19.1 µM
OVCAR-8 ovarian
  GI50: 8.41 µM
  TGI: 16.2 µM
UACC-257 melanoma
  GI50: 7.91 µM
  TGI: 18.3 µM
NCI/ADR-RES ovarian
  GI50: 8.41 µM
  TGI: 16.6 µM
